Results reported in patent publication EP4094762A1, “TREATMENT OF NEUROLOGICAL INDICATIONS” (UCL Business Ltd, priority 2021, dated 2022).
Read-outs that look alike come from different tables or passages of the source. Marks after values point to notes of the source that are not given here. Each block holds one compound with its values, some of them ahead of it.

Columns and labels:
[1] = In vivo pharmacodynamic EEG study after oral administration; design: species or system Sprague-Dawley rats; details: rat, 10mg/kg orally
Excerpt: Study to assess in vivo pharmacodynamic activity of BPTU (S1) in the CNS of rats following oral administration.
Pre-surgery: The animals were allowed a minimum period of 7 days acclimatisation on arrival in the facility.
Surgery: Male Sprague-Dawley rats were anaesthetised with isoflurane (2-5% in Oxygen at 11/min) throughout the procedure. The scalp, neck and right flank were cleared of hair using clippers and cleaned using diluted Hibitane (50% (v/v) in water). A non-steroidal anti-inflammatory agent was administered (Carprofen 5mg/kg, s.c.) and the animals placed on a homeothermic blanket (37 °C) with the head fixed in a stereotaxic frame. Incisions were made in the scalp and neck, as well as in the right flank. Blunt dissection of the abdominal muscle was then made to gain access to the peritoneal cavity. A radio transmitter (HD-S02, Data Sciences International) was implanted with the body of the transmitter placed in the peritoneal cavity and secured to the muscle wall with non-absorbable sutures through the body of the transmitter. The wires of the transmitter were passed through the muscle wall and then sub-dermally using a trochar (16G needle) to the scalp to act as EEG/EMG electrodes. The scalp was cleared of connective tissue and two bore holes were made in the skull with a trepanning drill (fronto-parietal coordinates: Bregma +2mm anterior, midline +1.0mm lateral and Lambda 0mm, +1.5mm lateral). The positive EEG electrode was attached to the anterior bore hole and the negative EEG electrode to the posterior bore hole. Both electrodes were secured in place using a suitable adhesive agent (Cyanoacrylate gel, RS components). A second set of electrodes were sutured into the nuchal muscle to act as EMG electrodes. All incisions were closed using absorbable suture. The animals were allowed to recover in a warm environment and given 5ml of saline s.c. The animals were kept singly in the cage until next day, then pair housed for the duration of post-surgical recovery (min 7 days). During the recovery period, the rats received 5 days of standard post-operative care with no further experimental procedures until the pre-operative body weight was regained. The animals were maintained on a 12/12hr light dark cycle after the surgery.
Testing: On study days, the animals were placed in recording boxes individually and EEG/EMG as well as locomotor activity were recorded for 0.5 h before and 24 h after each dosing. […]
The subsequent EEG/EMG recordings were automatically scored (see Table below for sleep stage definitions) as wake, non-REM (NREM) sleep, or REM sleep in 10 second epochs using SleepSign (Kissei Comtec, Japan).
Power spectral analysis was performed on EEG data recorded over the first 3 h. […]

[2] = CNS penetration: intravenous cassette pharmacokinetic study, brain and plasma by LC-MS/MS; details: mouse; for CNS penetrant (asterisk): in vivo; for CNS penetration: total brain to plasma ratio: t = 2 hr, 0.4mg/kg intravenous
Experimental: To assess penetration of compounds into the mouse central nervous system, intravenous pharmacokinetic studies were undertaken in C57B16/J mice. […] Compounds were then combined into a single dosing solution and administered together via the intravenous route into 24 mice. Total compound dose administered to each mouse was 2mg/kg. Mice were culled at various times post dosing and brain and plasma collected for bioanalysis. In particular, mice were culled and plasma collected for bioanalysis at 8 time points out to 24 hours post dosing. Brains were also collected for bioanalysis at various time points to assess CNS penetration. 2 hour and 4 hour brain collection was carried out in all studies. Additional time points were collected in selected studies.
For bioanalysis, compounds were prepared in DMSO and aliquoted together to ensure a final concentration of 1mg/mL per compound in DMSO. Analytical standards were prepared from the initial 1mg/mL stock solution of compound, with a 12-point standard curve range from 0.5ng/mL to 2000ng/mL, with independent quality control tests from 1ng/mL to 1000ng/mL run to validate the standards. All standards and QC samples were matrix matched to eliminate possible suppression. Plasma samples were prepared with a 1:10 dilution in plasma. […] Dose solutions were diluted in a control matrix to a relative concentration that fell on the standard curve. Cold acetonitrile containing internal standard was added to all samples, standards, dose samples and QC samples; samples were then centrifuged for 30 minutes at 4000rpm. After centrifugation, supernatant was transferred to a new 96-well plate, diluted with an equal volume of water and mixed thoroughly before LC-MS analysis.
Supernatents were analysed by LC-MS/MS. From the analysis data a response ratio was obtained using the formula Response Ratio = Test Peak Area/Internal Standard Peak Area. From the standard curve, the test peak area was converted to concentration of test compound.
To establish CNS penetration, the ratio of the concentration of each compound in the plasma samples to the brain samples was assessed.

P2Y1 receptor = molecular target: T1, P2Y1 receptor (Homo sapiens, UniProt P47900); assay: Cell based HTRF assay measuring IP1 accumulation; antagonism of the P2Y1 agonist MRS2365; details: rounded to nearest whole number
T1 construct: expressed in transfected cells
Experimental: IC50 values were determined using a cell based assay in stably transfected cells overexpressing the P2Y1 receptor. The assay system is a high throughput […] assay measuring accumulation of the intracellular messenger inositol monophosphate (IP1), generated intracellularly following activation of P2Y1.
P2Y1 overexpressing cells were maintained in T175 flasks. The day before the assay, these cells were split and 20µl cell suspension transferred to each well of white 384-well assay plates at a cell density of 0.5x10^6 cells/mL. Plates were pulse centrifuged, then incubated overnight at 37°C / 5% CO2 prior to assay.
On day of assay, medium was removed from cells and replaced with stimulation buffer. […] Positive control antagonist curves with standard compounds were included on each plate. Plates were incubated with antagonists for 1 hour prior to addition of 5nM of the agonist MRS2365, dispensed using a Bravo liquid handler. Following agonist addition, plates were incubated for 60 minutes prior to assay. Both incubations were carried out at 37°C / 5% CO2.
For the assay, IP1 accumulation was quantified using the IPOne kit according to manufacturer's instructions. In short, a standard curve was prepared for IP1 quantification, and cells lysed using kit lysis buffer. Assay reagents were added to the lysates, and incubated for 1 hour at room temperature without spinning or shaking. Plates were analysed on a BMG Pherastar plate reader, and IP1 signal generated in cells interpolated from the standard curve.

T1 sequence (P47900 whole entry): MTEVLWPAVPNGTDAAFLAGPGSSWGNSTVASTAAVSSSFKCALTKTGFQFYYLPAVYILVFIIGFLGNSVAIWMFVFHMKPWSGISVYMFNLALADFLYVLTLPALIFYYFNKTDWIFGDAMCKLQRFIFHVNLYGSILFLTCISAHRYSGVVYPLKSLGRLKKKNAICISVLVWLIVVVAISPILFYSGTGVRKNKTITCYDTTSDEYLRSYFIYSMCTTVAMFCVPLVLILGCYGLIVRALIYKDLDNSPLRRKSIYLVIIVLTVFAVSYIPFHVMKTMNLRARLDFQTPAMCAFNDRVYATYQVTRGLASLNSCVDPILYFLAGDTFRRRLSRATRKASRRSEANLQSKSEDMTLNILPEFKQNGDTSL

SMILES: CC(C)(C)c1ccccc1Oc1ncccc1NC(=O)Nc1ccc(OC(F)(F)F)cc1 [BPTU, 1-(2-(2-(tert-butyl)phenoxy)pyridin-3-yl)-3-(4-(trifluoromethoxy)phenyl)urea]
EEG power, delta band ([1]; during non-REM sleep): Significant increases
EEG power, theta band ([1]; during non-REM sleep): Significant increases
EEG power, gamma frequency band ([1]; during wake): Significant increases
changes in the EEG power spectrum ([1]; first three hours post dosing): significant changes

SMILES: CC(C)(C)c1ccccc1Oc1ncccc1NC(=O)Nc1ccc(OC(F)(F)F)cc1 [S1 (BPTU), 1-(2-(2-(tert-butyl)phenoxy)pyridin-3-yl)-3-(4-(trifluoromethoxy)phenyl)urea]
CNS penetrant (asterisk) ([2]; C57B16/J, 0.4 mg/kg): S1 (BPTU)*

SMILES: CC1(C)CN(c2ccccc2NC(=O)Nc2ccc(OC(F)(F)F)cc2)c2c(O)ccc(-c3ccc(Cl)cc3)c21 [compound 1, reference compound]
CNS penetration: total brain to plasma ratio [2]: BLLQ^d
IC50 (P2Y1 receptor; 5nM MRS2365, read-out: IC50): 33 nM

SMILES: Cc1ccc(NC(=O)Nc2ccc(OC(F)(F)F)cc2)c(Oc2ccccc2C(C)(C)C)n1 [compound 3, 1-(2-(2-(tert-butyl)phenoxy)-6-methylpyridin-3-yl)-3-(4-(trifluoromethoxy)phenyl)urea, reference compound]
CNS penetration: total brain to plasma ratio [2]: BLLQ^d
IC50 (P2Y1 receptor; 5nM MRS2365, read-out: IC50): 36 nM

The next lines start with the values.

CNS penetrant (asterisk) [2]: S4*
IC50 (P2Y1 receptor; read-out: IC50 IP1): 58 nM
SMILES: O=C(Nc1ccc(OC(F)(F)F)cc1)Nc1cccnc1Oc1ccccc1C1(C(F)(F)F)CC1 [S4, 1-(4-(trifluoromethoxy)phenyl)-3-(2-(2-(1-(trifluoromethyl)cyclopropyl)phenoxy)pyridin-3-yl)urea]

CNS penetrant (asterisk) [2]: S8*
IC50 (P2Y1 receptor; read-out: IC50 IP1): 121 nM
SMILES: CC(C)(C)c1ccccc1Oc1ncccc1NC(=O)Nc1ccc(C(F)(F)F)s1 [S8, 1-(2-(2-(tert-butyl)phenoxy)pyridin-3-yl)-3-(5-(trifluoromethyl)thiophen-2-yl)urea]

CNS penetrant (asterisk) [2]: S9*
IC50 (P2Y1 receptor; read-out: IC50 IP1): 122 nM
SMILES: Cc1c(Oc2ncccc2NC(=O)Nc2ccc(OC(F)(F)F)cc2)cccc1N1CCCCC1 [S9]

CNS penetrant (asterisk) [2]: S11*
IC50 (P2Y1 receptor; read-out: IC50 IP1): 150 nM
SMILES: CC(C)(C)c1ccccc1Oc1cccc(O)c1NC(=O)Nc1ccc(OC(F)(F)F)cc1 [S11, 1-(2-(2-(tert-butyl)phenoxy)-6-hydroxyphenyl)-3-(4-(trifluoromethoxy)phenyl)urea]
